From paper PMC10518257 (Nature Cancer, 2023)
Several values for one entry are separate records, joined by “and”; a condition that tells them apart may be missing. Identical values can stand only once. Like-named read-outs stand apart in the source and are kept apart here.

Key:
LUAD-0087AS2 PDX = test: PDX efficacy study; settings: for Change in tumor volume (% from base line): Fig. 6a LUAD-0087AS2; for Change in tumor volume (% from base line) / Tumor volume: individual animals; for Area Under Curve Mean: Fig. 6a LUAD-0087AS2 tumor growth; for Tumor volume: LUAD-0087AS2
Ba/F3 cells = test: Growth inhibition assay in Ba/F3 cells (CellTiter-Glo, 72 h); assay type: cell-based; settings: Mus musculus
[1] = tested on: Ba/F3 cells expressing KIF5B–RET^G810R; test: as above; assay type: cell-based; settings: Ba/3-KIF5B-RET-G810R; replicate Sets 1-3
[2] = tested on: Ba/F3 cells expressing KIF5B–RET^G810C; test: as above; assay type: cell-based; settings: Ba/3-KIF5B-RET-G810C; replicate Sets 1-3
[3] = tested on: phosphorylation of RET^G810R, RET^G810S and RET^G810C in Ba/F3 cells; test: Western blotting of RET phosphorylation in Ba/F3 KIF5B–RET cells; assay type: cell-based; settings: 1 h, western blot, 100 nM
LC-2/ad cells = test: Growth inhibition (alamarBlue, 96 h); assay type: cell-based, human; settings: for raw viability signal (Source Data Fig. 3b-c): LC-2/Ad, replicate sets
[4] = target: T1, panel of 255 (vepafestinib) or 256 (all other inhibitors) recombinant kinases (Homo sapiens, UniProt P16234); test: Kinase selectivity profiling at a single concentration (Carna Biosciences); assay type: biochemical; settings: 23 nM
T1 construct: purchased Carna Biosciences

[5] = target: T2, panel of 255 (vepafestinib) or 256 (all other inhibitors) recombinant kinases (Homo sapiens, UniProt P35916); test: as above; assay type: biochemical; settings: 23 nM
T2 construct: purchased Carna Biosciences

[6] = target: panel of 255 (vepafestinib) or 256 (all other inhibitors) recombinant kinases; test: as above; assay type: biochemical; settings: 23 nM, panel of 255 recombinant kinases
LUAD-0002AS1 cells = test: Growth inhibition (alamarBlue, 96 h); assay type: cell-based, human; settings: for raw viability signal (Source Data Fig. 3b-c): LUAD-0002AS1, replicate sets
[7] = tested on: Ba/F3 cells expressing KIF5B–RET^V804L; test: Growth inhibition assay in Ba/F3 cells (CellTiter-Glo, 72 h); assay type: cell-based; settings: replicate sets
[8] = tested on: Ba/F3 KIF5B–RET^WT allograft tumors; test: Subcutaneous allograft efficacy study; assay type: in vivo, BALB/c nude mice; settings: Ba/F3-KIF5B::RET, 50 mg/kg BID

T1 sequence (P16234 24-1089): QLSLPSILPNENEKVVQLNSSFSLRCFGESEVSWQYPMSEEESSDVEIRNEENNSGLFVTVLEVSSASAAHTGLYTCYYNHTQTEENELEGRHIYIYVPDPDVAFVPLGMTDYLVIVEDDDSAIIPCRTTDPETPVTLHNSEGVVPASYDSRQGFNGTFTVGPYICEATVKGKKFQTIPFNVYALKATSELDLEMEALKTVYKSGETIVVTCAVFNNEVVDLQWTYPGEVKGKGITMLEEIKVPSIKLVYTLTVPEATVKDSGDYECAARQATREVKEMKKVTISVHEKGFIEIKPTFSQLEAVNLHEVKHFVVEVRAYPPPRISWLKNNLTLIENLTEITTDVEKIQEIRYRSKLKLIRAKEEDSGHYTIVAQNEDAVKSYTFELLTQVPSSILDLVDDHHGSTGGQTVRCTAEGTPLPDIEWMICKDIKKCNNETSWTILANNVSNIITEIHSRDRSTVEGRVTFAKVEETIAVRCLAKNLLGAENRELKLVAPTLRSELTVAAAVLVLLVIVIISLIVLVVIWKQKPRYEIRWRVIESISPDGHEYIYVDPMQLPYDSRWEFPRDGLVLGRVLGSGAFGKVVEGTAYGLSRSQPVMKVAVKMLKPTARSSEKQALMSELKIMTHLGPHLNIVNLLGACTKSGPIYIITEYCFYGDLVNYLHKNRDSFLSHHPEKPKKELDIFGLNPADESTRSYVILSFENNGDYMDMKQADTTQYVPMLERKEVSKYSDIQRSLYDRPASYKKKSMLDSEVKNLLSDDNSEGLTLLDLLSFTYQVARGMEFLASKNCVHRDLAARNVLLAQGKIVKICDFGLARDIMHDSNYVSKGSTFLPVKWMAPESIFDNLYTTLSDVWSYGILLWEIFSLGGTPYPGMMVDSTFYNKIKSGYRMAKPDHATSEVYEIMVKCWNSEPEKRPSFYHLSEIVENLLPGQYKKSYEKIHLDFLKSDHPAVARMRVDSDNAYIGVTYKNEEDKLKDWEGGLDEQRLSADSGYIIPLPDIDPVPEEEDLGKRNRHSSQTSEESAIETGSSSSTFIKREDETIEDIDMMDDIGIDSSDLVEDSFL
T2 sequence (P35916 25-1363): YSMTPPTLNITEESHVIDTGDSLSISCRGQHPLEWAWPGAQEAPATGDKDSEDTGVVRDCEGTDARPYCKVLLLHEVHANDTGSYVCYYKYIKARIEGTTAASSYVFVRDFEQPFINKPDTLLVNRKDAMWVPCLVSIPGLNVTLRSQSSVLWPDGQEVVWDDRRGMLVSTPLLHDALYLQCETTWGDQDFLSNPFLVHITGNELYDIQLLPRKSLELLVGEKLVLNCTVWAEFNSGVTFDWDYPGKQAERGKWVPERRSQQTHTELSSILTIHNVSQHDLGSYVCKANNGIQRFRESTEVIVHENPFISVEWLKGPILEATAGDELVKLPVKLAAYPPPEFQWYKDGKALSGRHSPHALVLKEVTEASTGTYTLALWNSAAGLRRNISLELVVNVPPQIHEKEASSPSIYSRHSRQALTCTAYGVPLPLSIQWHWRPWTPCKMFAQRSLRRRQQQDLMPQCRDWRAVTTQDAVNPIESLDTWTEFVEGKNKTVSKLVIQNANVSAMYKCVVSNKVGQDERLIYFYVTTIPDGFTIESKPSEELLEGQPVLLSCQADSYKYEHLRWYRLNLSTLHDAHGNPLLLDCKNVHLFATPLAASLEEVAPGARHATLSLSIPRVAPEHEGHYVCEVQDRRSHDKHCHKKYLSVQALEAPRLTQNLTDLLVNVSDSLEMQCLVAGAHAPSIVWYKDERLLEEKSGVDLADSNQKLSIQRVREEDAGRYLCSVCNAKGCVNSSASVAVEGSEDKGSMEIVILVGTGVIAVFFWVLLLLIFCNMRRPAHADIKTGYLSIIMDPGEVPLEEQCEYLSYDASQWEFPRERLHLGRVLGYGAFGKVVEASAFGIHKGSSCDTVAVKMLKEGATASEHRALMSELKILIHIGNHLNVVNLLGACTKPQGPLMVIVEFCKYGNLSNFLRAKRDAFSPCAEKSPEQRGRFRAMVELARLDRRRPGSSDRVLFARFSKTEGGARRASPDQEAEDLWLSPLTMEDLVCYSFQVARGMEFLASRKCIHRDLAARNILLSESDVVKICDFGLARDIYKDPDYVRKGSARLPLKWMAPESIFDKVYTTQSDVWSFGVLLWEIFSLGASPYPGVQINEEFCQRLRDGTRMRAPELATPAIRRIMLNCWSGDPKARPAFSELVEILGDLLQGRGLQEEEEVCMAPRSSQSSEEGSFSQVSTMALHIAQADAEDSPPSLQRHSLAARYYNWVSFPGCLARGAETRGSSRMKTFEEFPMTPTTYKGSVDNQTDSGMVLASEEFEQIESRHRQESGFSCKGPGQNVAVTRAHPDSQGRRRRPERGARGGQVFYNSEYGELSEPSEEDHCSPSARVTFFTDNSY

COCc1ccc(NC(=O)c2c(C#CCN3CCOCC3)n(C3(C)CC3)c3ncnc(N)c23)cc1 [Vepafestinib, 4-amino-N-[4-(methoxymethyl)phenyl]-7-(1-methylcyclopropyl)-6-[3-(morpholin-4-yl)prop-1-yn-1-yl]-7H-pyrrolo[2,3-d]pyrimidine-5-carboxamide]
Change in tumor volume (% from base line) (LUAD-0087AS2 PDX; 50 mg/kg BID): 87.879% and 58.129% and 44.45% and -5.144% and -25.229% | Change in tumor volume (% from base line) (LUAD-0087AS2 PDX; 100 mg/kg QD): 17.228% and 8.714% and 8.637% and 6.644% and -4.481% | Area Under Curve Mean (LUAD-0087AS2 PDX; 50 mg/kg BID): 607.7 | Area Under Curve Mean (LUAD-0087AS2 PDX; 100 mg/kg QD): -475 | Tumor volume (LUAD-0087AS2 PDX; 50 mg/kg BID, treatment day 14): 176.99 and 151.71 and 143.39 and 141.55 and 122.52 | Tumor volume (LUAD-0087AS2 PDX; 50 mg/kg BID, treatment day 17): 184.47 and 160.85 and 154.42 and 148.22 and 128.59 | Tumor volume (LUAD-0087AS2 PDX; 50 mg/kg BID, treatment day 21): 153.78 and 172.55 and 161.49 and 152.64 and 130.54 | Tumor volume (LUAD-0087AS2 PDX; 50 mg/kg BID, treatment day 24): 80.7 and 118.01 and 87.03 and 107.44 and 78.99 | Tumor volume (LUAD-0087AS2 PDX; 50 mg/kg BID, treatment day 29): 140.89 (2×) and 167.28 and 145.47 and 91.61 | Tumor volume (LUAD-0087AS2 PDX; 50 mg/kg BID, treatment day 32): 98.2 and 131.95 and 113.98 and 102.07 and 83.83 | Tumor volume (LUAD-0087AS2 PDX; 50 mg/kg BID, treatment day 35): 98.2 and 165.14 and 137.6 and 146.01 and 86.78 | Tumor volume (LUAD-0087AS2 PDX; 50 mg/kg BID, treatment day 38): 108.88 and 165.14 and 151.71 and 155.09 and 86.78 | Tumor volume (LUAD-0087AS2 PDX; 50 mg/kg BID, treatment day 42): 118.01 and 213.8 and 176.98 and 176.74 and 91.61 | Tumor volume (LUAD-0087AS2 PDX; 50 mg/kg BID, treatment day 45): 118.01 and 222.58 and 176.98 and 181.58 and 91.61 | Tumor volume (LUAD-0087AS2 PDX; 100 mg/kg QD, treatment day 14): 102.07 and 91.61 and 107.17 and 110.58 and 103.77 | Tumor volume (LUAD-0087AS2 PDX; 100 mg/kg QD, treatment day 17): 102.07 and 81.71 and 90.28 and 103.77 (2×) | Tumor volume (LUAD-0087AS2 PDX; 100 mg/kg QD, treatment day 21): 107.17 (2×) and 113.1 and 118.75 and 114.83 | Tumor volume (LUAD-0087AS2 PDX; 100 mg/kg QD, treatment day 24): 93.59 and 83.07 and 77.95 and 87.03 and 98.2 | Tumor volume (LUAD-0087AS2 PDX; 100 mg/kg QD, treatment day 29): 100.37 and 99.78 and 80.89 and 91.87 and 98.2 | Tumor volume (LUAD-0087AS2 PDX; 100 mg/kg QD, treatment day 32): 103.92 and 108.88 and 90.28 and 95.24 and 107.17 | Tumor volume (LUAD-0087AS2 PDX; 100 mg/kg QD, treatment day 35): 109.36 and 120.29 and 95.03 and 107.44 and 110.58 | Tumor volume (LUAD-0087AS2 PDX; 100 mg/kg QD, treatment day 38): 109.36 and 120.29 and 114.83 and 118.75 and 122.12 | Tumor volume (LUAD-0087AS2 PDX; 100 mg/kg QD, treatment day 42): 109.36 and 126.29 and 116.65 and 126.64 and 138.88 | Tumor volume (LUAD-0087AS2 PDX; 100 mg/kg QD, treatment day 45): 109.36 and 126.29 and 120.64 and 126.64 and 138.88 | GI50 (Ba/F3 cells; BaF3, 72 h, read-out: GI50 value (Mean ± SD), Ba/F3, CellTiter-Glo, 72 h): > 10 µM | GI50 (Ba/F3 cells; BaF3, Ba/F3 (parental), replicate Sets 1-3): > 10 µM | GI50 [1]: 0.0242 µM and 0.0467 µM | GI50 [2]: 0.0145 µM | suppression of phosphorylation of RET^G810R, RET^G810S and RET^G810C [3]: near-complete inhibition | IC50 (LC-2/ad cells; Homo sapiens, LC-2-ad, 96 h, read-out: IC50 for Inhibition of Growth (95% CI)): 0.015 µM | raw viability signal (Source Data Fig. 3b-c) (LC-2/ad cells; 0.01 nM): 13380.1 and 23532.8 | raw viability signal (Source Data Fig. 3b-c) (LC-2/ad cells; 0.1 nM): 13890.3 and 20497.1 | raw viability signal (Source Data Fig. 3b-c) (LC-2/ad cells; 1 nM): 12571.5 and 21458.9 | raw viability signal (Source Data Fig. 3b-c) (LC-2/ad cells; 10 nM): 6299.39 and 16710 | raw viability signal (Source Data Fig. 3b-c) (LC-2/ad cells; 100 nM): 4794.24 and 3373.89 | raw viability signal (Source Data Fig. 3b-c) (LC-2/ad cells; 1000 nM): 5340.72 and 2243.82 | raw viability signal (Source Data Fig. 3b-c) (LC-2/ad cells; 10000 nM): 3810.66 and 1837.55 | % Inhibiton PDGFRα [4]: 12.4% | % Inhibiton FLT4 [5]: 46.9% | kinases inhibited by >50% [6]: one and RET was the only kinase inhibited by >50% | IC50 (LUAD-0002AS1 cells; Homo sapiens, 96 h, read-out: IC50 for Inhibition of Growth (95% CI)): 0.006 µM | raw viability signal (Source Data Fig. 3b-c) (LUAD-0002AS1 cells; 0.01 nM): 16782.2 and 12668.5 and 13089 | raw viability signal (Source Data Fig. 3b-c) (LUAD-0002AS1 cells; 0.1 nM): 15237.2 and 13944 and 12774.4 | raw viability signal (Source Data Fig. 3b-c) (LUAD-0002AS1 cells; 1 nM): 14596.9 and 11925.3 and 12443 | raw viability signal (Source Data Fig. 3b-c) (LUAD-0002AS1 cells; 10 nM): 5820.38 and 4419.86 and 6264.61 | raw viability signal (Source Data Fig. 3b-c) (LUAD-0002AS1 cells; 100 nM): 2459.35 and 2506.15 and 3193.42 | raw viability signal (Source Data Fig. 3b-c) (LUAD-0002AS1 cells; 1000 nM): 1853.86 and 1731.17 and 3413.68 | raw viability signal (Source Data Fig. 3b-c) (LUAD-0002AS1 cells; 10000 nM): 1864.65 and 2510.44 and 3189.66 | GI50 ([7]; Ba/3-KIF5B-RET-V804L): 0.0214 µM | GI50 ([7]; Mus musculus, BaF3, Ba/3-KIF5B-RET-V804L): 0.0259 µM | Tumor Volume Mean ([8]; Day 1, Ext. Data Fig. 9a): 153.20 mm3 | Tumor Volume Mean ([8]; Day 1, Ext. Data Fig. 9b): 219.73 mm3 | Tumor Volume Mean ([8]; Day 4, Ext. Data Fig. 9a): 87.32 mm3 | Tumor Volume Mean ([8]; Day 4, Ext. Data Fig. 9b): 116.10 mm3 | Tumor Volume Mean ([8]; Day 8, Ext. Data Fig. 9a): 98.53 mm3 | Tumor Volume Mean ([8]; Day 8, Ext. Data Fig. 9b): 190.23 mm3 | Tumor Volume Mean ([8]; Day 11, Ext. Data Fig. 9a): 80.59 mm3 | Tumor Volume Mean ([8]; Day 11, Ext. Data Fig. 9b): 68.61 mm3
